According to patent US20120316184A1, “NOVEL MICROBICIDES” (SYNGENTA CROP PROTECTION LLC, priority 2010, published 2012):

What was measured:
[1] = tested on: Phaeosphaeria nodorum (Septoria nodorum); test: Fungicidal activity against Phaeosphaeria nodorum (Septoria nodorum) / wheat / leaf disc preventative (glume blotch); type: in vivo; details: Parastagonospora nodorum, foliar, wheat leaf segments cv. Kanzler, inoculated 2 days after application, assessed 5-7 days after application, vs untreated, read-out: disease control
Method: Fungicidal Activity Against Phaeosphaeria nodorum (Septoria nodorum)/Wheat/Leaf Disc Preventative (Glume Blotch) Wheat leaf segments cv. Kanzler were placed on agar in a multiwell plate (24-well format) and sprayed with the formulated test compound diluted in water. The leaf disks were inoculated with a spore suspension of the fungus 2 days after application. The inoculated test leaf disks were incubated at 20° C. and 75% rh under a light regime of 12 h light/12 h darkness in a climate cabinet and the activity of a compound was assessed as percent disease control compared to untreated when an appropriate level of disease damage appears in untreated check leaf disks (5-7 days after application).

[2] = tested on: Puccinia recondita f. sp. tritici; test: Fungicidal activity against Puccinia recondita f. sp. tritici / wheat / leaf disc preventative (brown rust); type: in vivo; details: foliar, wheat leaf segments cv. Kanzler, inoculated 1 day after application, assessed 7-9 days after application, vs untreated, read-out: disease control
Method: Fungicidal Activity Against Puccinia recondita f. sp. tritici/Wheat/Leaf Disc Preventative (Brown Rust) Wheat leaf segments cv. Kanzler were placed on agar in multiwell plates (24-well format) and sprayed with the formulated test compound diluted in water. The leaf disks were inoculated with a spore suspension of the fungus 1 day after application. The inoculated leaf segments were incubated at 19° C. and 75% rh under a light regime of 12 h light/12 h darkness in a climate cabinet and the activity of a compound was assessed as percent disease control compared to untreated when an appropriate level of disease damage appears in untreated check leaf segments (7-9 days after application).

[3] = tested on: Monographella nivalis (Microdochium nivale); test: Fungicidal activity against Monographella nivalis (Microdochium nivale) / liquid culture (foot rot cereals); type: cell-based; details: liquid culture (PDB), inhibition of growth determined photometrically 4-5 days after application, read-out: disease control
Method: Fungicidal Activity Against Monographella nivalis (Microdochium nivale)/Liquid Culture (Foot Rot Cereals) Conidia of the fungus from cryogenic storage were directly mixed into nutrient broth (PDB potato dextrose broth). After placing a (DMSO) solution of test compound into a microtiter plate (96-well format), the nutrient broth containing the fungal spores was added. The test plates were incubated at 24° C. and the inhibition of growth was determined photometrically 4-5 days after application.

[4] = tested on: Mycosphaerella graminicola (Septoria tritici); test: Fungicidal activity against Mycosphaerella graminicola (Septoria tritici) / liquid culture (Septoria blotch); type: cell-based; details: Zymoseptoria tritici, liquid culture (PDB), inhibition of growth determined photometrically 4-5 days after application, read-out: disease control
Method: Fungicidal Activity Against Mycosphaerella graminicola (Septoria tritici)/Liquid Culture (Septoria Blotch) Conidia of the fungus from cryogenic storage were directly mixed into nutrient broth (PDB potato dextrose broth). After placing a (DMSO) solution of test compound into a microtiter plate (96-well format), the nutrient broth containing the fungal spores was added. The test plates were incubated at 24° C. and the inhibition of growth was determined photometrically 4-5 days after application.

[5] = tested on: Glomerella lagenarium (Colletotrichum lagenarium); test: Fungicidal activity against Glomerella lagenarium (Colletotrichum lagenarium) / liquid culture (anthracnose); type: cell-based; details: Colletotrichum orbiculare, liquid culture (PDB), inhibition of growth measured photometrically 3-4 days after application, read-out: disease control
Method: Fungicidal Activity Against Glomerella lagenarium (Colletotrichum lagenarium)/Liquid Culture (Anthracnose) Conidia of the fungus from cryogenic storage were directly mixed into nutrient broth (PDB potato dextrose broth). After placing a (DMSO) solution of test compound into a microtiter plate (96-well format), the nutrient broth containing the fungal spores was added. The test plates were incubated at 24° C. and the inhibition of growth was measured photometrically 3-4 days after application.

[6] = tested on: Mycosphaerella arachidis (Cercospora arachidicola); test: Fungicidal activity against Mycosphaerella arachidis (Cercospora arachidicola) / liquid culture (early leaf spot); type: cell-based; details: liquid culture (PDB), inhibition of growth determined photometrically 4-5 days after application, read-out: disease control
Method: Fungicidal Activity Against Mycosphaerella arachidis (Cercospora arachidicola)/Liquid Culture (Early Leaf Spot) Conidia of the fungus from cryogenic storage were directly mixed into nutrient broth (PDB potato dextrose broth). After placing a (DMSO) solution of test compound into a microtiter plate (96-well format), the nutrient broth containing the fungal spores was added. The test plates were incubated at 24° C. and the inhibition of growth was determined photometrically 4-5 days after application.

[7] = tested on: Gaeumannomyces graminis; test: Fungicidal activity against Gaeumannomyces graminis / liquid culture (take-all of cereals); type: cell-based; details: liquid culture (PDB), inhibition of growth determined photometrically 4-5 days after application, read-out: disease control
Method: Fungicidal Activity Against Gaeumannomyces graminis/Liquid Culture (Take-all of Cereals) Mycelial fragments of the fungus from cryogenic storage were directly mixed into nutrient broth (PDB potato dextrose broth). After placing a (DMSO) solution of test compound into a microtiter plate (96-well format), the nutrient broth containing the fungal spores is added. The test plates were incubated at 24° C. and the inhibition of growth was determined photometrically 4-5 days after application.

[8] = tested on: Botryotinia fuckeliana (Botrytis cinerea); test: Fungicidal activity against Botryotinia fuckeliana (Botrytis cinerea) / liquid culture (gray mould); type: cell-based; details: liquid culture (Vogels broth), inhibition of growth determined photometrically 3-4 days after application, read-out: disease control
Method: Fungicidal Activity Against Botryotinia fuckeliana (Botrytis cinerea)/Liquid Culture (Gray Mould) Conidia of the fungus from cryogenic storage were directly mixed into nutrient broth (Vogels broth). After placing a (DMSO) solution of test compound into a microtiter plate (96-well format), the nutrient broth containing the fungal spores was added. The test plates were incubated at 24° C. and the inhibition of growth was determined photometrically 3-4 days after application.

[9] = tested on: Pyrenophora teres; test: Fungicidal activity against Pyrenophora teres / barley / leaf disc preventative (net blotch); type: in vivo; details: foliar, barley leaf segments cv. Hasso, inoculated 2 days after application, assessed 5-7 days after application, vs untreated, read-out: disease control
Method: Fungicidal Activity Against Pyrenophora teres/Barley/Leaf Disc Preventative (Net Blotch) Barley leaf segments cv. Hasso were placed on agar in a multiwell plate (24-well format) and sprayed with the formulated test compound diluted in water. The leaf […] inoculated with a spore suspension of the fungus 2 days after application. The inoculated leaf segments were incubated at 20° C. and 65% rh under a light regime of 12 h light/12 h darkness in a climate cabinet and the activity of a compound was assessed as disease control compared to untreated when an appropriate level of disease damage appears in untreated check leaf segments (5-7 days after application).

Clc1nc(-c2cccc(Cc3ccccc3)n2)nc2sccc12 [Compound T3.1.33, 2-(6-benzyl-pyridin-2-yl)-4-chloro-thieno[2,3-d]pyrimidine]
≥ 80%: pest or weed control at 200 ppm [1] | pest or weed control at 200 ppm [2] | inhibition of growth at 200 ppm [3] | inhibition of growth at 200 ppm [4] | inhibition of growth at 200 ppm [5] | inhibition of growth at 200 ppm [6] | inhibition of growth at 200 ppm [7]

COc1nc(-c2cccc(Cc3ccccc3)n2)nc2sccc12 [Compound T3.1.35, 2-(6-benzyl-pyridin-2-yl)-4-methoxy-thieno[2,3-d]pyrimidine]
≥ 80%: pest or weed control at 200 ppm [1] | inhibition of growth at 200 ppm [3] | inhibition of growth at 200 ppm [4] | inhibition of growth at 200 ppm [5] | inhibition of growth at 200 ppm [6] | inhibition of growth at 200 ppm [7]

Cc1ccc(-c2ncc3cccnc3n2)nc1-c1ccccc1 [Compound T10.1.6, 2-(5-methyl-6-phenyl-pyridin-2-yl)-pyrido[2,3-d]pyrimidine]
≥ 80%: pest or weed control at 200 ppm [1] | inhibition of growth at 200 ppm [8] | pest or weed control at 200 ppm [2] | inhibition of growth at 200 ppm [3] | inhibition of growth at 200 ppm [4] | inhibition of growth at 200 ppm [5] | pest or weed control at 200 ppm [9] | inhibition of growth at 200 ppm [6] | inhibition of growth at 200 ppm [7]

CCOc1nc(-c2cccc(Cc3ccccc3)n2)nc2sccc12 [Compound T15.1]
≥ 80%: pest or weed control at 200 ppm [2] | inhibition of growth at 200 ppm [3] | inhibition of growth at 200 ppm [4] | inhibition of growth at 200 ppm [5] | inhibition of growth at 200 ppm [6] | inhibition of growth at 200 ppm [7]

c1ccc(Cc2cccc(-c3ncc4c5c(sc4n3)CCC5)n2)cc1 [Compound T15.2]
≥ 80%: inhibition of growth at 200 ppm [6] | inhibition of growth at 200 ppm [7]

Cc1sc2nc(-c3cccc(Cc4ccccc4)n3)ncc2c1C [Compound T15.4]
≥ 80%: inhibition of growth at 200 ppm [8] | inhibition of growth at 200 ppm [3] | pest or weed control at 200 ppm [9] | inhibition of growth at 200 ppm [6] | inhibition of growth at 200 ppm [7]

Cc1cc(F)ccc1-c1cccc(-c2nc(O)c3ccsc3n2)n1 [Compound T15.5]
≥ 80%: inhibition of growth at 200 ppm [8] | inhibition of growth at 200 ppm [7]

Cc1ccc(C)c(-c2cccc(-c3nc(O)c4ccsc4n3)n2)c1 [Compound T15.7]
≥ 80%: inhibition of growth at 200 ppm [3] | inhibition of growth at 200 ppm [7]

COc1nc(-c2cccc(-c3cc(C)ccc3C)n2)nc2sccc12 [Compound T15.8]
≥ 80%: inhibition of growth at 200 ppm [4] | pest or weed control at 200 ppm [9] | inhibition of growth at 200 ppm [6] | inhibition of growth at 200 ppm [7]

COc1nc(-c2cccc(C#CC3CC3)n2)nc2sccc12 [Compound T15.9]
≥ 80%: inhibition of growth at 200 ppm [3] | inhibition of growth at 200 ppm [6] | inhibition of growth at 200 ppm [7]

Cc1cccc(-c2nc(-c3ccccc3)c3ncccc3n2)n1 [Compound T15.10]
≥ 80%: pest or weed control at 200 ppm [1] | inhibition of growth at 200 ppm [8] | pest or weed control at 200 ppm [2] | inhibition of growth at 200 ppm [4] | inhibition of growth at 200 ppm [5] | pest or weed control at 200 ppm [9] | inhibition of growth at 200 ppm [6] | inhibition of growth at 200 ppm [7]

COc1cccc(-c2nc(-c3cccc(C)n3)nc3sccc23)c1 [Compound T15.11]
≥ 80%: pest or weed control at 200 ppm [1] | inhibition of growth at 200 ppm [8] | pest or weed control at 200 ppm [2] | inhibition of growth at 200 ppm [3] | inhibition of growth at 200 ppm [4] | inhibition of growth at 200 ppm [5] | pest or weed control at 200 ppm [9] | inhibition of growth at 200 ppm [6] | inhibition of growth at 200 ppm [7]

Cc1cccc(-c2nc(-c3cccc(C)n3)nc3sccc23)c1 [Compound T15.12]
≥ 80%: pest or weed control at 200 ppm [1] | inhibition of growth at 200 ppm [8] | pest or weed control at 200 ppm [2] | inhibition of growth at 200 ppm [3] | inhibition of growth at 200 ppm [4] | inhibition of growth at 200 ppm [5] | pest or weed control at 200 ppm [9] | inhibition of growth at 200 ppm [6] | inhibition of growth at 200 ppm [7]

Cc1cccc(-c2nc(-c3ccccc3C)c3ccsc3n2)n1 [Compound T15.13]
≥ 80%: pest or weed control at 200 ppm [1] | inhibition of growth at 200 ppm [8] | inhibition of growth at 200 ppm [4] | inhibition of growth at 200 ppm [5] | inhibition of growth at 200 ppm [6] | inhibition of growth at 200 ppm [7]

Cc1cccc(-c2nc(-c3ccccc3Cl)c3ccsc3n2)n1 [Compound T15.14]
≥ 80%: pest or weed control at 200 ppm [1] | inhibition of growth at 200 ppm [8] | inhibition of growth at 200 ppm [4] | inhibition of growth at 200 ppm [5] | pest or weed control at 200 ppm [9] | inhibition of growth at 200 ppm [6] | inhibition of growth at 200 ppm [7]

Cc1cccc(-c2nc(-c3ccc(Cl)cc3)c3ccsc3n2)n1 [Compound T15.15]
≥ 80%: pest or weed control at 200 ppm [1] | inhibition of growth at 200 ppm [8] | pest or weed control at 200 ppm [2] | inhibition of growth at 200 ppm [3] | inhibition of growth at 200 ppm [4] | inhibition of growth at 200 ppm [5] | pest or weed control at 200 ppm [9] | inhibition of growth at 200 ppm [6] | inhibition of growth at 200 ppm [7]
